The target in this assay is T1, IKZF3-GFP (Homo sapiens, UniProt Q96SW2+Q9UKT9).
T1 construct: expressed in transfected cells; host or cells: HEK293A (Invitrogen R70507), lentiviral transduction with pLenti6-IKZF3-GFP-Ires-RFP, blasticidin selection
The assay can be described thus: IKZF3-GFP protein abundance flow cytometry assay in HEK293A cells. Conditions: HEK293A IKZF3-GFP-iresRFP cells, 24 h; for DC50: GFP signal by flow cytometry; for IKZF3 deg Amax: % protein remaining at maximum degradation. The class given is cell-based. The protocol: BTK-GFP and IKZF3-GFP protein abundance flow cytometry assay in HEK293A cells:
Degradation of BTK or IKZF3 was measured in HEK293A cells (Invitrogen R70507) expressing either BTK-GFP and RFP or IKZF3-GFP and RFP from a stably integrated bicistronic BTK-GFP-iresRFP or IKZF3-GFP-iresRFP construct, respectively. Reduction of the GFP signal measured by flow cytometry served as readout for BTK or IKZF3 degradation after degrader treatment.
By analogy the bicistronic pLenti6-IKZF3-GFP-iresRFP was engineered by gateway cloning of IKZF3 from a pENTR221-IKZF3(STOP-Leu) construct into the previously described pLenti6-DEST-GFP-Ires-RFP vector using the LR Clonase kit (Invitrogen 11791-019) according to the manufacturer's manual. All vectors described have been sequenced for verification.
ii) Engineering of Stably Expressing 293A BTK-GFP-Ires-RFP and IKZF3-GFP-Ires-RFP Sensor Cells
293A BTK-GFP-Ires-RFP and IKZF3-GFP-ires-RFP sensor cells were generated by lentiviral vector transduction using the pLenti6-BTK-GFP-Ires-RFP or pLenti6-IKZF3-GFP-Ires-RFP sensor construct described before. Lentiviral particles were produced in HEK293FT cells (Invitrogen R70007) by co-transfection of 500 ng pLenti6-BTK-GFP-ires-RFP or pLenti6-IKZF3-GFP-Ires-RFP, 500 ng delta8.71 and 200 ng pVSVG diluted in 100 μl OptiMEM serum free medium (Invitrogen #11058-021) that was mixed after 5 min preincubation with 3 μl of Lipofectamine2000 (Invitrogen #11668-019) in 97 μl OptiMEM serum free medium. The mix was incubated for another 20 min at RT and then added on 1 ml of a freshly prepared suspension of HEK293FT cells in a well of a 6-well plate (concentration 1.2×10^6 cells/ml). 1 day after transfection, the medium was replaced with 1.5 ml of complete growth medium (DMEM high Glucose+10% FCS+1% L-Glutamine+1% NEAA+1% NaPyr.). 48 h post transfection supernatant containing viral transducing particles was collected and frozen at −80° C.
Two days before transduction with viral particles 1×10^5 HEK293A cells (Invitrogen R70507) were seeded in 2 ml growth medium in a well of a 6-well plate. Infection was performed with 90 μl of collected supernatant containing viral transducing particles in 1 ml medium including 8 μg/ml polybrene. 24 h post infection, stably transfected cells were selected with blasticidin at a concentration of 8 μg/ml.
Iii) Quantitative BTK-GFP and IKZF3-GFP Abundance Measurements
Stable HEK293A-BTK-GFP-iresRFP cells were maintained in complete growth medium (DMEM high Glucose+10% FCS+1% L-Glutamine+1% NEAA+1% NaPyr.) with passaging performed twice per week. On Day 0, HEK293A-BTK-GFP-iresRFP or HEK293A-IKZF3-GFP-iresRFP and HEK293A-iresRFP cells were seeded at 10,000 cells/well in a 96-well microtiter plate in 260 μl complete medium. On Day 1, cells were treated in duplicate with 10-point 1:3 dilution series of compound using the HP D300 Digital Dispenser (Tecan). DMSO concentrations were normalized across the plate to 0.1%. On Day 2, after 24 h of incubation at 37° C., treatment media was discarded, cells rinsed with 100 μl/well PBS and then detached using 40 μl trypsin/well for 5 min. Trypsin was neutralized with 100 μl/well PBS+20% FCS). Flow cytometry was performed on the samples using the BD FACS CANTO II (Becton Dickinson). Cell identification was then performed using forward (FSC) vs. side scatter (SSC) plots. […] Median GFP values for 5,000 single cells are used to determine BTK levels. Median GFP values from HEK293A-iresRFP are used as a background signal and thus defining 0% BTK signal. Median GFP values from DMSO treated HEK293A-BTK-GFP-iresRFP or HEK293A-IKZF3-GFP-iresRFP are used to define 100% BTK signal for subsequent DC50 curves (concentration at 50% BTK degradation).

T1 sequence (Q9UKT9 whole entry): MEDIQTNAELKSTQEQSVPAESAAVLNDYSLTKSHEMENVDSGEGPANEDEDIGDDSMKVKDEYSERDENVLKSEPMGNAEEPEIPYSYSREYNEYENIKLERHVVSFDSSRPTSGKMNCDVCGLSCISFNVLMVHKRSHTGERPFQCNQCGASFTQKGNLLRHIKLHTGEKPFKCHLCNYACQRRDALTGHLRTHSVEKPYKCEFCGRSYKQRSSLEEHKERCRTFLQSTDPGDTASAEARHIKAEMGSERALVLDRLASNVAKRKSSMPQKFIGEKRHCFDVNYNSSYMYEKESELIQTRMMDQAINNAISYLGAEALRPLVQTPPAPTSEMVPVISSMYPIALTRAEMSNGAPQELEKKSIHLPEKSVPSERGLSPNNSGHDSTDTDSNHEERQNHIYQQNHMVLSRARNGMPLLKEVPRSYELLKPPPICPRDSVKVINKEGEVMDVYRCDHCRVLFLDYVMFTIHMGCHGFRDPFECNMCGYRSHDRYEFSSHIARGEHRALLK
T1 sequence (Q96SW2 whole entry): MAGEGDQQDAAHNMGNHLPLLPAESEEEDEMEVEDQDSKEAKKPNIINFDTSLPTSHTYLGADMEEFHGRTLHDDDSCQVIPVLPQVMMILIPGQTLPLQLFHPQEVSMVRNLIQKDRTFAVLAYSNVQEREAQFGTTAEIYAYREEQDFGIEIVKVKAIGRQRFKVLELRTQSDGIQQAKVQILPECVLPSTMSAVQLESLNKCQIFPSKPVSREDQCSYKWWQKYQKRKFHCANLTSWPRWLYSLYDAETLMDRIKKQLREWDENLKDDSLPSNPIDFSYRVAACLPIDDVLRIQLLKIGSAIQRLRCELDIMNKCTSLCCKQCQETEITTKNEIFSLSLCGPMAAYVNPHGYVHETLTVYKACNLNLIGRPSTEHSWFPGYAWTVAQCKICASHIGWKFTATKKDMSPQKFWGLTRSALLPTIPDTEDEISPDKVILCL
T1 sequence (Q16531 whole entry partner): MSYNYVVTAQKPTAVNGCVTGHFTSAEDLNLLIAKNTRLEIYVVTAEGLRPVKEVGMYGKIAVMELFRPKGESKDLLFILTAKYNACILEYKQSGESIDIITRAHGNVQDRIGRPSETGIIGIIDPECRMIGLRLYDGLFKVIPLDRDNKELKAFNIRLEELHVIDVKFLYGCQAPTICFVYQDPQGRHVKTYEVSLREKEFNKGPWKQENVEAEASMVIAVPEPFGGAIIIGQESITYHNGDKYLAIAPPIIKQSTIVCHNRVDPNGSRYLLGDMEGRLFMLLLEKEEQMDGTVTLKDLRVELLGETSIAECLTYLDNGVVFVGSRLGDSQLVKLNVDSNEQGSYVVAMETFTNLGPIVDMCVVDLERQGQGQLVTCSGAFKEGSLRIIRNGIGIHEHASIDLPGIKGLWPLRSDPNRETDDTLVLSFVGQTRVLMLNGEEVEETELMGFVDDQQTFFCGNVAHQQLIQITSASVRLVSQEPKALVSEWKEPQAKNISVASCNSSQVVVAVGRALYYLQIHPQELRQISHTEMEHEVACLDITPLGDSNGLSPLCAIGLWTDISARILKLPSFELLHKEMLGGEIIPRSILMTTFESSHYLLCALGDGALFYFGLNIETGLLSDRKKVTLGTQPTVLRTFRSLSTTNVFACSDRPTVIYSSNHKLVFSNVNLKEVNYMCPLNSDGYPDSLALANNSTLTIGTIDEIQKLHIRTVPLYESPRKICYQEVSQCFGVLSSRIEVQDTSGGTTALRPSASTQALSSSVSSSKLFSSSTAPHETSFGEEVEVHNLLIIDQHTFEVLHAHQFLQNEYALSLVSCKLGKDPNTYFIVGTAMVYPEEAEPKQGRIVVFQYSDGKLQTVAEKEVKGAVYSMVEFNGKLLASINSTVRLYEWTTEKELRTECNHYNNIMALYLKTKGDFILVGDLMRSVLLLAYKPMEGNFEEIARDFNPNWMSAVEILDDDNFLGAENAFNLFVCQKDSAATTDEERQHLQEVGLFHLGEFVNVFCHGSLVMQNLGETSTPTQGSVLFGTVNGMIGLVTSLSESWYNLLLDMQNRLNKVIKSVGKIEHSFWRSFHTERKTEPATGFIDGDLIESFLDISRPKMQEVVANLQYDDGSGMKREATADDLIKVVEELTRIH

Regarding `COc1ccc(C(=O)N2CCC(OC3CCN(CCc4ccc(-c5cc6c(-c7cc(F)cc(NC(=O)c8ccc(C(C)(C)O)cc8F)c7C)ncnc6[nH]5)cc4)CC3)CC2)cc1N1CCC(=O)NC1=O` [Compound 34, N-(3-(6-(4-(2-(4-((1-(3-(2,4-Dioxotetrahydropyrimidin-1(2H)-yl)-4-methoxybenzoyl)piperidin-4-yl)oxyl)piperidin-1-yl)ethyl)phenyl)-7H-pyrrolo[2,3-d]pyrimidin-4-yl)-5-fluoro-2-methylphenyl)-2-fluoro-4-(2-hydroxypropan-2-yl)benzamide], the DC50 is above 10 µM and the “IKZF3 deg Amax” value amounted to 94.7%.

For the compound `Cc1cc(F)c(C(=O)NCCCCCNCc2ccc(-c3cc4c(-c5cc(F)cc(NC(=O)c6ccc(C(C)(C)O)cc6F)c5C)ncnc4[nH]3)cc2)cc1N1CCC(=O)NC1=O` [Compound 29, 5-(2,4-Dioxotetrahydropyrimidin-1(2H)-yl)-2-fluoro-N—(S-((4-(4-(5-fluoro-3-(2-fluoro-4-(2-hydroxypropan-2-yl)benzamido)-2-methylphenyl)-7H-pyrrolo[2,3-d]pyrimidin-6-yl)benzyl)amino)pentyl)-4-methylbenzamide], the DC50 is above 3.3 µM and the “IKZF3 deg Amax” value is recorded as 98.6%.

With `Cc1ccc(C(=O)N2CCC3(CCN(CCc4ccc(-c5cc6c(-c7cc(F)cc(NC(=O)c8ccc(C(C)(C)O)cc8F)c7C)ncnc6[nH]5)cc4)CC3)CC2)cc1N1CCC(=O)NC1=O` [Compound 5, N-(3-(6-(4-(2-(9-(3-(2,4-Dioxotetrahydropyrimidin-1(2H)-yl)-4-methylbenzoyl)-3,9-diazaspiro[5.5]undecan-3-yl)ethyl)phenyl)-7H-pyrrolo[2,3-d]pyrimidin-4-yl)-5-fluoro-2-methylphenyl)-2-fluoro-4-(2-hydroxypropan-2-yl)benzamide], the DC50 was above 0.37 µM and the “IKZF3 deg Amax” value came out at 103.3%.

For `COc1ccc(C(=O)N2CCC3(CCN(CCc4ccc(-c5cc6c(-c7cc(F)cc(NC(=O)c8ccc(C(C)(C)O)cc8F)c7C)ncnc6[nH]5)cc4)CC3)CC2)cc1N1CCC(=O)NC1=O` [Compound 31, N-(3-(6-(4-(2-(9-(3-(2,4-Dioxotetrahydropyrimidin-1(2H)-yl)-4-methoxybenzoyl)-3,9-diazaspiro[5.5]undecan-3-yl)ethyl)phenyl)-7H-pyrrolo[2,3-d]pyrimidin-4-yl)-5-fluoro-2-methylphenyl)-2-fluoro-4-(2-hydroxypropan-2-yl)benzamide], the DC50 is above 5.5 µM and the “IKZF3 deg Amax” value amounted to 99.8%.

Turning to `COc1ccc(C(=O)N2CCC3(CCN(Cc4ccc(-c5cc6c(-c7cc(F)cc(NC(=O)c8ccc(C(C)(C)O)cc8F)c7C)ncnc6[nH]5)cc4)CC3)CC2)cc1N1CCC(=O)NC1=O` [Compound 9, N-(3-(6-(4-((9-(3-(2,4-Dioxotetrahydropyrimidin-1(2H)-yl)-4-methoxybenzoyl)-3,9-diazaspiro[5.5]undecan-3-yl)methyl)phenyl)-7H-pyrrolo[2.3-d]pyrimidin-4-yl)-5-fluoro-2-methylphenyl)-2-fluoro-4-(2-hydroxypropan-2-yl)benzamide], the DC50 was above 7.8 µM and the “IKZF3 deg Amax” value was found to be 99.1%.

`Cc1ccc(C(=O)N(C)CCCCCNCc2ccc(-c3cc4c(-c5cc(F)cc(NC(=O)c6ccc(C(C)(C)O)cc6F)c5C)ncnc4[nH]3)cc2)cc1N1CCC(=O)NC1=O` [Compound 30, 3-(2,4-Dioxotetrahydropyrimidin-1(2H)-yl)-N-(5-((4-(4-(5-fluoro-3-(2-fluoro-4-(2-hydroxypropan-2-yl)benzamido)-2-methylphenyl)-7H-pyrrolo[2,3-d]pyrimidin-6-yl)benzyl)amino)pentyl)-N,4-dimethylbenzamide]: the DC50 was above 3.3 µM and the “IKZF3 deg Amax” value amounted to 101.1%.

As to `CCOc1ccc(C(=O)N2CCC3(CCN(Cc4ccc(-c5cc6c(-c7cc(F)cc(NC(=O)c8ccc(C(C)(C)O)cc8F)c7C)ncnc6[nH]5)cc4)CC3)CC2)cc1N1CCC(=O)NC1=O` [Compound 4, N-(3-(6-(4-((9-(3-(2,4-Dioxotetrahydropyrimidin-1(2H)-yl)-4-ethoxybenzoyl)-3,9-diazaspiro[5.5]undecan-3-yl)methyl)phenyl)-7H-pyrrolo[2,3-d]pyrimidin-4-yl)-5-fluoro-2-methylphenyl)-2-fluoro-4-(2-hydroxypropan-2-yl)benzamide], the DC50 was above 1.1 µM and the “IKZF3 deg Amax” value worked out at 101.3%.

For the origin of these results see patent publication US12441733B2, “Substituted 2,4-dioxotetrahydropyrimidines as intermediates in the synthesis of bruton's tyrosine kinase inhibitors” (Novartis AG, priority 2018, dated 2025).
